Reference: article PMC9917201, “Enhanced Antibacterial Activity of Substituted Derivatives of NCR169C Peptide” (International Journal of Molecular Sciences, 2023)
Converted amounts (≈) assume the structure as drawn. Where two headings read alike, the source gives them in different places. Non-standard residues stand in square brackets, D forms with d. Residues, ends and D or L forms follow the SMILES beside them. ξ: configuration not given here. ξTrp(6-F) = NC(Cc1c[nH]c2cc(F)ccc12)C(=O)O; ξTrp(7-aza) = NC(Cc1c[nH]c2ncccc12)C(=O)O

Tests used:
S. aureus (ATCC 25923) = assay type: cell-based, Staphylococcus aureus; details: ATCC 25923, 3 h, pH 7.4
Source text: (§1) The bacterial strains for the antimicrobial assay were obtained from the ATCC (American Type Culture Collection, Manassas, VA, USA) and NCTC (National Collection of Type Cultures, Salisbury, UK). Gram-negative strains were Pseudomonas aeruginosa (ATCC 27853), Escherichia coli (ATCC 8739, ATCC 35218, and ATCC 25922), Salmonella enterica (ATCC 13076), Klebsiella pneumoniae (NCTC 13440), Acinetobacter baumannii (ATCC 17978) and the Gram-positive strains were Enterococcus faecalis (ATCC 29212), Listeria monocytogenes (ATCC 19111), and Staphylococcus aureus (HNCMO112011 and ATCC 25923).
(§2) Determination of antibacterial activity for the peptides was carried out by utilizing a minimum bactericidal concentration (MBC) bioassay. Synthesized peptides were dissolved in sterile water and used from 25 to 0.125 μM in 2-fold dilution series and incubated with ~10^7 log phase bacteria in Potassium-Phosphate Buffer (PPB, pH: 7.4) for three hours as described earlier. After that, 5 μl of each sample was placed on LB agar and the growth of bacteria was monitored after overnight incubation at 37 °C. The lowest concentration of the antimicrobial agents that completely eliminated viable bacteria was considered the minimal bactericidal concentration (MBC).

[1] = tested on: tested bacteria (ESKAPE pathogens, Listeria monocytogenes, Salmonella enterica); assay type: cell-based
Source text: as §1, §2

[2] = tested on: Staphylococcus aureus (HNCMO112011); assay type: cell-based
Source text: as §1, §2

[3] = tested on: Salmonella enterica (ATCC 13076); assay type: cell-based
Source text: as §1, §2

[4] = tested on: Klebsiella pneumoniae (NCTC 13440); assay type: cell-based
Source text: as §1, §2

[5] = tested on: Enterococcus faecalis (ATCC 29212); assay type: cell-based
Source text: as §1, §2

[6] = tested on: Acinetobacter baumannii (ATCC 17978); assay type: cell-based
Source text: as §1, §2

[7] = tested on: Listeria monocytogenes (ATCC 19111); assay type: cell-based
Source text: as §1, §2

[8] = tested on: Pseudomonas aeruginosa (ATCC 27853); assay type: cell-based
Source text: as §1, §2

[9] = tested on: Escherichia coli (ATCC 8739); assay type: cell-based
Source text: as §1, §2

E. coli (ATCC 25922) = assay type: cell-based, Escherichia coli; details: ATCC 25922, 3 h, pH 7.4
Source text: as §1, §2

E. coli (ATCC 35218) = assay type: cell-based, Escherichia coli; details: ATCC 35218, 3 h, pH 7.4
Source text: as §1, §2

[10] = Enterococcus faecalis ATCC 29212, ~10^7 log phase bacteria, 3 h in potassium-phosphate buffer (PPB) pH 7.4, peptide 25 to 0.125 μM 2-fold series, 5 μl on LB agar, overnight 37 °C
[11] = Listeria monocytogenes ATCC 19111, ~10^7 log phase bacteria, 3 h in PPB pH 7.4, peptide 25 to 0.125 μM 2-fold series, plated on LB agar, overnight 37 °C

Row | Compound | MBC S.a. ATTC 25923 (S. aureus (ATCC 25923)) [µM] | MBC against most or all of the tested bacteria ([1]; 3 h, pH 7.4) [µM] | Minimal bactericidal concentration (MBC) S. a. ([2]; HNCMO112011, 3 h, pH 7.4) [µM] | Minimal bactericidal concentration (MBC) S. e. ([3]; ATCC 13076, 3 h, pH 7.4) [µM] | Minimal bactericidal concentration (MBC) K. p. ([4]; NCTC 13440, 3 h, pH 7.4) [µM] | Minimal bactericidal concentration (MBC) E. f. ([5]; ATCC 29212, 3 h, pH 7.4) [µM] | Minimal bactericidal concentration (MBC) A. b. ([6]; ATCC 17978, 3 h, pH 7.4) [µM] | Minimal bactericidal concentration (MBC) L. m. ([7]; ATCC 19111, 3 h, pH 7.4) [µM] | Minimal bactericidal concentration (MBC) P. a. ([8]; ATCC 27853, 3 h, pH 7.4) [µM] | Minimal bactericidal concentration (MBC) E. c. ([9]; ATCC 8739, 3 h, pH 7.4) [µM] | MBC E.c. ATTC 25922 (E. coli (ATCC 25922)) [µM] | MBC E.c. ATTC 35218 (E. coli (ATCC 35218)) [µM] | Minimal bactericidal concentration (MBC) E. f. [5, 10] [µM] | Minimal bactericidal concentration (MBC) L. m. [7, 11] [µM] | other results
1 | CC[C@H](C)[C@H](NC(=O)[C@H](CCCCN)NC(=O)[C@H](Cc1ccccc1)NC(=O)[C@H](CC(C)C)NC(=O)[C@@H]1CCCN1C(=O)[C@H](CCCCN)NC(=O)[C@H](CCCCN)NC(=O)[C@H](CO)NC(=O)[C@@H](N)CCCCN)C(=O)NC(Cc1c[nH]c2cc(F)ccc12)C(=O)N[C@@H](CCCCN)C(=O)N[C@@H](CO)C(=O)N[C@H](C(=O)N[C@@H](CCC(=O)O)C(=O)N[C@@H](CC(N)=O)C(=O)N[C@H](C(=O)N[C@@H](CO)C(=O)N[C@H](C(=O)N[C@@H](CC(C)C)C(=O)N[C@@H](Cc1c[nH]c2ccccc12)C(=O)N[C@@H](Cc1ccc(O)cc1)C(=O)N[C@@H](CCCCN)C(N)=O)C(C)C)C(C)C)C(C)C (some centres unmarked) [NCR169C17–38C12,17/S-10W^6-F II] (H-KSKKPLFKI[ξTrp(6-F)]KSVENVSVLWYK-NH2; N-terminus assumed) | 1.6 (≈ 4.36 µg/mL) | 0.8 to 1.6 | 0.8 (≈ 2.18 µg/mL) | 6.3 (≈ 17.2 µg/mL) | 1.6 (≈ 4.36 µg/mL) | 0.8 (≈ 2.18 µg/mL) | 0.8 (≈ 2.18 µg/mL) | 1.6 (≈ 4.36 µg/mL) | 1.6 (≈ 4.36 µg/mL) | 0.8 (≈ 2.18 µg/mL) | 0.8 (≈ 2.18 µg/mL) | 0.8 (≈ 2.18 µg/mL) | – | – | –
2 | CC[C@H](C)[C@H](NC(=O)[C@H](CCCCN)NC(=O)[C@H](Cc1ccccc1)NC(=O)[C@H](CC(C)C)NC(=O)[C@@H]1CCCN1C(=O)[C@H](CCCCN)NC(=O)[C@H](CCCCN)NC(=O)[C@H](CO)NC(=O)[C@@H](N)CCCCN)C(=O)NC(Cc1c[nH]c2cc(F)ccc12)C(=O)N[C@@H](CCCCN)C(=O)N[C@@H](CO)C(=O)N[C@H](C(=O)N[C@@H](CCC(=O)O)C(=O)N[C@@H](CC(N)=O)C(=O)N[C@H](C(=O)N[C@@H](CO)C(=O)N[C@H](C(=O)N[C@@H](CC(C)C)C(=O)N[C@@H](Cc1c[nH]c2ccccc12)C(=O)N[C@@H](Cc1ccc(O)cc1)C(=O)N[C@@H](CCCCN)C(N)=O)C(C)C)C(C)C)C(C)C (some centres unmarked) [NCR169C17–38C12,17/S-10W^6-F I] (H-KSKKPLFKI[ξTrp(6-F)]KSVENVSVLWYK-NH2; N-terminus assumed) | 1.6 (≈ 4.36 µg/mL) | 0.8 to 1.6 | 0.8 (≈ 2.18 µg/mL) | 1.6 (≈ 4.36 µg/mL) | 1.6 (≈ 4.36 µg/mL) | 1.6 (≈ 4.36 µg/mL) | 1.6 (≈ 4.36 µg/mL) | 1.6 (≈ 4.36 µg/mL) | 0.8 (≈ 2.18 µg/mL) | 0.8 (≈ 2.18 µg/mL) | 0.8 (≈ 2.18 µg/mL) | 0.8 (≈ 2.18 µg/mL) | – | – | –
3 | CC[C@H](C)[C@H](NC(=O)[C@H](CCCCN)NC(=O)[C@H](Cc1ccccc1)NC(=O)[C@H](CC(C)C)NC(=O)[C@@H]1CCCN1C(=O)[C@H](CCCCN)NC(=O)[C@H](CCCCN)NC(=O)[C@H](CO)NC(=O)[C@@H](N)CCCCN)C(=O)N[C@@H](Cc1c[nH]c2ccccc12)C(=O)N[C@@H](CCCCN)C(=O)N[C@@H](CO)C(=O)N[C@H](C(=O)N[C@@H](CCC(=O)O)C(=O)N[C@@H](CC(N)=O)C(=O)N[C@H](C(=O)N[C@@H](CO)C(=O)N[C@H](C(=O)N[C@@H](CC(C)C)C(=O)NC(Cc1c[nH]c2ncccc12)C(=O)N[C@@H](Cc1ccc(O)cc1)C(=O)N[C@@H](CCCCN)C(N)=O)C(C)C)C(C)C)C(C)C (some centres unmarked) [NCR169C17–38C12,17/S-20W^7-Aza II] (H-KSKKPLFKIWKSVENVSVL[ξTrp(7-aza)]YK-NH2; N-terminus assumed) | – | 12.5 | 12.5 (≈ 33.9 µg/mL) | 12.5 (≈ 33.9 µg/mL) | 12.5 (≈ 33.9 µg/mL) | 12.5 (≈ 33.9 µg/mL) | 12.5 (≈ 33.9 µg/mL) | 12.5 (≈ 33.9 µg/mL) | 12.5 (≈ 33.9 µg/mL) | 12.5 (≈ 33.9 µg/mL) | – | – | – | – | –
4 | CC[C@H](C)[C@H](NC(=O)[C@H](CCCCN)NC(=O)[C@H](Cc1ccccc1)NC(=O)[C@H](CC(C)C)NC(=O)[C@@H]1CCCN1C(=O)[C@H](CCCCN)NC(=O)[C@H](CCCCN)NC(=O)[C@H](CO)NC(=O)[C@@H](N)CCCCN)C(=O)N[C@@H](Cc1c[nH]c2ccccc12)C(=O)N[C@@H](CCCCN)C(=O)N[C@@H](CO)C(=O)N[C@H](C(=O)N[C@@H](CCC(=O)O)C(=O)N[C@@H](CC(N)=O)C(=O)N[C@H](C(=O)N[C@@H](CO)C(=O)N[C@H](C(=O)N[C@@H](CC(C)C)C(=O)NC(Cc1c[nH]c2ncccc12)C(=O)N[C@@H](Cc1ccc(O)cc1)C(=O)N[C@@H](CCCCN)C(N)=O)C(C)C)C(C)C)C(C)C (some centres unmarked) [NCR169C17–38C12,17/S-20W^7-Aza I] (H-KSKKPLFKIWKSVENVSVL[ξTrp(7-aza)]YK-NH2; N-terminus assumed) | – | 6.3 | 6.3 (≈ 17.1 µg/mL) | 6.3 (≈ 17.1 µg/mL) | 6.3 (≈ 17.1 µg/mL) | – | 6.3 (≈ 17.1 µg/mL) | – | 6.3 (≈ 17.1 µg/mL) | 3.1 (≈ 8.4 µg/mL) | – | – | 25 (≈ 67.7 µg/mL) | 25 (≈ 67.7 µg/mL) | –
5 | CC[C@H](C)[C@H](NC(=O)[C@H](CCCCN)NC(=O)[C@H](Cc1ccccc1)NC(=O)[C@H](CC(C)C)NC(=O)[C@@H]1CCCN1C(=O)[C@H](CCCCN)NC(=O)[C@H](CCCCN)NC(=O)[C@H](CO)NC(=O)[C@@H](N)CCCCN)C(=O)N[C@@H](Cc1c[nH]c2ccccc12)C(=O)N[C@@H](CCCCN)C(=O)N[C@@H](CO)C(=O)N[C@H](C(=O)N[C@@H](CCC(=O)O)C(=O)N[C@@H](CC(N)=O)C(=O)N[C@H](C(=O)N[C@@H](CO)C(=O)N[C@H](C(=O)N[C@@H](CC(C)C)C(=O)N[C@@H](Cc1c[nH]c2ccccc12)C(=O)N[C@@H](Cc1ccc(O)cc1)C(=O)N[C@@H](CCCCN)C(N)=O)C(C)C)C(C)C)C(C)C [NCR169C17–38C12,17/S] (H-KSKKPLFKIWKSVENVSVLWYK-NH2) | 3.1 (≈ 8.39 µg/mL) | – | 1.6 (≈ 4.33 µg/mL) | 1.6 (≈ 4.33 µg/mL) | 3.1 (≈ 8.39 µg/mL) | 3.1 (≈ 8.39 µg/mL) | 1.6 (≈ 4.33 µg/mL) | 3.1 (≈ 8.39 µg/mL) | 3.1 (≈ 8.39 µg/mL) | 1.6 (≈ 4.33 µg/mL) | 1.6 (≈ 4.33 µg/mL) | 3.1 (≈ 8.39 µg/mL) | – | – | –
6 | KSKKPLFKIWKSVENVSVLW^5-MeOYK [NCR169C17–38C12,17/S-20W^5-MeO, NCR169C17–38C12,17/S analog with 5-methoxy tryptophan at position 20, forms not separated] | – | – | – | – | – | – | – | – | – | – | – | – | 3.1 | 3.1 | MBC against most or all of the tested bacteria ([1]; summary over the tested bacterial species, 3 h in PPB pH 7.4): 3.1 µM; Minimal bactericidal concentration (MBC) S. a. ([2]; Staphylococcus aureus HNCMO112011, ~10^7 log phase bacteria, 3 h in PPB pH 7.4, peptide 25 to 0.125 μM 2-fold series, plated on LB agar, overnight 37 °C): 3.1 µM; Minimal bactericidal concentration (MBC) S. e. ([3]; Salmonella enterica ATCC 13076, ~10^7 log phase bacteria, 3 h in PPB pH 7.4, peptide 25 to 0.125 μM 2-fold series, plated on LB agar, overnight 37 °C): 3.1 µM; Minimal bactericidal concentration (MBC) K. p. ([4]; Klebsiella pneumoniae NCTC 13440, ~10^7 log phase bacteria, 3 h in PPB pH 7.4, peptide 25 to 0.125 μM 2-fold series, plated on LB agar, overnight 37 °C): 3.1 µM; Minimal bactericidal concentration (MBC) A. b. ([6]; Acinetobacter baumannii ATCC 17978, ~10^7 log phase bacteria, 3 h in PPB pH 7.4, peptide 25 to 0.125 μM 2-fold series, plated on LB agar, overnight 37 °C): 3.1 µM; Minimal bactericidal concentration (MBC) P. a. ([8]; Pseudomonas aeruginosa ATCC 27853, ~10^7 log phase bacteria, 3 h in PPB pH 7.4, peptide 25 to 0.125 μM 2-fold series, plated on LB agar, overnight 37 °C): 0.8 µM; Minimal bactericidal concentration (MBC) E. c. ([9]; Escherichia coli ATCC 8739, ~10^7 log phase bacteria, 3 h in PPB pH 7.4, peptide 25 to 0.125 μM 2-fold series, plated on LB agar, overnight 37 °C): 3.1 µM
